The results in this text go back to patent publication EP0366638A2, “Neuromodulatory peptide” (KabiGen AB, priority 1988, dated 1990).

One assay relates to cortical brain slices. The assay can be described thus: release of acetylcholine from cortical brain slices. Particulars: following depolarization, Fig. 1. It counts as cell-based. From the text:
The tripeptide resulting from the manufacture according to Example 1 above was used in a test system according to L. Nilsson, V.R. Sara and A. Nordberg, Neurosience Letters, 1988, Vol. 88, pp 221-226. This test procedure is based on stimulation of the release of acetylcholine from cortical brain slices.

In the next assay the test system is spinal cord. The assay can be described thus: electrophysiological reflex response in the spinal cord. The assay is classed as in vivo. From the text:
The result of these experiments is shown in Fig. 3, from which it is clear that the tripeptide increases both the peak and the duration of the reflex response.

The test system of a further assay is cortical neurones. The assay can be described thus: modulation of the electrophysiological activity of cortical neurones (microiontophoresis and pressure ejection procedure). Particulars: Fig. 2. From the text: The tripeptide from Example 1 above was used in modulation of the electrophysiological activity of cortical neurones, and the results of this experiment is illustrated in Fig. 2. […] In this experiment the procedure according to T.W. Stone (Ed.), "Microiontophonesis and pressure ejection", John Wiley & Sons, New York, 1985 was used.

As to `NCC(=O)N1CCC[C@H]1C(=O)N[C@@H](CCC(=O)O)C(=O)O` [tripeptide, glycylprolylglutamic acid], in the assay with cortical brain slices, the “release of acetylcholine from neurones” value is on record as “inhance the release of acetylcholine”. Also, in the assay on spinal cord (Fig. 3), the “duration of the reflex response” value is “increases” and the “peak of the reflex response” value was “increases”. Further, the “electrophysiological reflex response in the spinal cord” value with spinal cord (in vivo) is on record as “facilitate”. Also, the “neural response to neurotransmitters” value with cortical neurones (cortical neurones) was “modulates”. Also, the cortical neurone activity entry in the assay with cortical neurones (electrophysiological activity) is “both stimulates and inhibits”.
